Data as given in patent publication US6737383B1, “Herbicidal oxadiazolidines” (priority 1999, dated 2004).

Key:
velvetleaf = assay: Test B pre/postemergence velvetleaf; assay type: in vivo, Abutilon theophrasti; details: Preemergence; for Plant response rating, Velvetleaf: Rate 125 g/ha
How it was run: (§1)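 Test chemicals in a non-phytotoxic solvent mixture with surfactant were sprayed preemergence onto planted seeds and postemergence onto plants 2 to 18 cm tall (1- to 4-leaf stage). After twelve to sixteen days in a greenhouse, injury was visually rated against untreated controls from 0 (no effect) to 10 (complete control).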

corn = assay: Test B pre/postemergence corn; assay type: in vivo, Zea mays; details: Preemergence
How it was run: as §1

cocklebur = assay: Test B pre/postemergence cocklebur; assay type: in vivo, Xanthium strumarium; details: Preemergence
How it was run: as §1

blackgrass = assay: Test B pre/postemergence blackgrass; assay type: in vivo, Alopecurus myosuroides; details: Preemergence
How it was run: as §1

morningglory = assay: Test B pre/postemergence morningglory; assay type: in vivo, Ipomoea hederacea; details: Preemergence; for Plant response rating, Morningglory: Rate 125 g/ha
How it was run: as §1

wild oat = assay: Test B pre/postemergence wild oat; assay type: in vivo, Avena fatua; details: Preemergence; for Plant response rating, Wild oats: Rate 125 g/ha
How it was run: as §1

purple nutsedge = assay: Test B pre/postemergence purple nutsedge; assay type: in vivo, Cyperus rotundus; details: Preemergence; for Plant response rating, Nutsedge: Rate 125 g/ha
How it was run: as §1

bedstraw = assay: Test B pre/postemergence bedstraw; assay type: in vivo, Galium aparine; details: Preemergence
How it was run: as §1

giant foxtail = assay: Test B pre/postemergence giant foxtail; assay type: in vivo, Setaria faberii; details: Preemergence; for Plant response rating, Giant foxtail: Rate 125 g/ha
How it was run: as §1

pigweed = assay: Test B pre/postemergence pigweed; assay type: in vivo, Amaranthus retroflexus; details: Preemergence; for Plant response rating, Redroot pigweed: Rate 125 g/ha
How it was run: as §1

sugar beet = assay: Test B pre/postemergence sugar beet; assay type: in vivo, Beta vulgaris; details: Preemergence; for Plant response rating, Sugarbeets: Rate 125 g/ha
How it was run: as §1

crabgrass = assay: Test B pre/postemergence crabgrass; assay type: in vivo, Digitaria sanguinalis; details: Preemergence
How it was run: as §1

soybean = assay: Test B pre/postemergence soybean; assay type: in vivo, Glycine max; details: Preemergence; for Plant response rating, Soybean: Rate 125 g/ha
How it was run: as §1

rape = assay: Test B pre/postemergence rape; assay type: in vivo, Brassica napus; details: Preemergence; for Plant response rating, Rape: Rate 125 g/ha
How it was run: as §1

surinam grass = assay: Test B pre/postemergence surinam grass; assay type: in vivo, Brachiaria decumbens; details: Preemergence
How it was run: as §1

wheat = assay: Test B pre/postemergence wheat; assay type: in vivo, Triticum aestivum; details: Preemergence; for Plant response rating, Wheat: Rate 125 g/ha
How it was run: as §1

[1] = Rate 62 g/ha, scale of 0 to 10 where 0 is no effect and 10 is complete control
[2] = scale of 0 to 10 where 0 is no effect and 10 is complete control
[3] = Rate 125 g/ha, scale of 0 to 10 where 0 is no effect and 10 is complete control
[4] = Rate 250 g/ha, scale 0 to 10 (0 no effect, 10 complete control)
[5] = Rate 500 g/ha, scale of 0 to 10 where 0 is no effect and 10 is complete control
[6] = Rate 250 g/ha, scale 0 (no effect) to 10 (complete control)
[7] = Rate 31 g/ha, visual rating, scale 0 to 10 (0 no effect, 10 complete control)
[8] = Rate 500 g/ha, scale 0 to 10 (0 no effect, 10 complete control)

CC(C)N(C(=O)n1oc(=O)n(CCC(=O)N(C)C)c1=O)c1ccc(F)cc1F [Compound 687]
Velvetleaf plant response rating (velvetleaf; [1]): 2 | Plant response rating, Velvetleaf (velvetleaf; [2]): 5 | Corn plant response rating (corn; [1]): 0 | Plant response rating, Corn (corn; [3]): 0 | Plant response rating, Corn (corn; [4]): 0 | Cocklebur plant response rating (cocklebur; [1]): 0 | Plant response rating, Cocklebur (cocklebur; [3]): 0 | Plant response rating, Cocklebur (cocklebur; [4]): 0 | Plant response rating, Cocklebur (cocklebur; [5]): 0 | Blackgrass plant response rating (blackgrass; [1]): 8 | Plant response rating, Blackgrass (blackgrass; [3]): 9 | Plant response rating, Blackgrass (blackgrass; [4]): 9 | Plant response rating, Blackgrass (blackgrass; [5]): 10 | Morningglory plant response rating (morningglory; [1]): 2 | Plant response rating, Morningglory (morningglory; [2]): 3 | Wild oats plant response rating (wild oat; [1]): 7 | Plant response rating, Wild oats (wild oat; [2]): 9 | Plant response rating, Nutsedge (purple nutsedge; [2]): 0 | Bedstraw plant response rating (bedstraw; [1]): 0 | Plant response rating, Bedstraw (bedstraw; [3]): 0 | Plant response rating, Bedstraw (bedstraw; [5]): 0 | Giant foxtail plant response rating (giant foxtail; [1]): 6 | Plant response rating, Giant foxtail (giant foxtail; [2]): 6 | Redroot pigweed plant response rating (pigweed; [1]): 8 | Plant response rating, Redroot pigweed (pigweed; [2]): 9 | Sugarbeets plant response rating (sugar beet; [1]): 4 | Plant response rating, Sugarbeets (sugar beet; [2]): 5 | Crabgrass plant response rating (crabgrass; [1]): 4 | Plant response rating, Crabgrass (crabgrass; [4]): 4 | Soybean plant response rating (soybean; [1]): 0 | Plant response rating, Soybean (soybean; [2]): 0 | Rape plant response rating (rape; [1]): 0 | Plant response rating, Rape (rape; [2]): 5 | B. signalgrass plant response rating (surinam grass; [1]): 6 | Plant response rating, B. signalgrass (surinam grass; [3]): 9 | Plant response rating, B. signalgrass (surinam grass; [4]): 10 | Plant response rating, B. signalgrass (surinam grass; [5]): 10 | Wheat plant response rating (wheat; [1]): 0 | Plant response rating, Wheat (wheat; [2]): 6

CC(C)N(C(=O)n1oc(=O)n(C(C)C)c1=O)c1ccc(Br)cc1 [Compound 691]
Velvetleaf plant response rating (velvetleaf; [1]): 0 | Plant response rating, Velvetleaf (velvetleaf; [2]): 0 | Corn plant response rating (corn; [1]): 0 | Plant response rating, Corn (corn; [3]): 0 | Plant response rating, Corn (corn; [4]): 0 | Cocklebur plant response rating (cocklebur; [1]): 0 | Plant response rating, Cocklebur (cocklebur; [4]): 0 | Plant response rating, Cocklebur (cocklebur; [5]): 0 | Blackgrass plant response rating (blackgrass; [1]): 4 | Plant response rating, Blackgrass (blackgrass; [3]): 9 | Plant response rating, Blackgrass (blackgrass; [4]): 10 | Plant response rating, Blackgrass (blackgrass; [5]): 10 | Morningglory plant response rating (morningglory; [1]): 0 | Plant response rating, Morningglory (morningglory; [2]): 0 | Wild oats plant response rating (wild oat; [1]): 2 | Plant response rating, Wild oats (wild oat; [2]): 6 | Nutsedge plant response rating (purple nutsedge; [1]): 0 | Bedstraw plant response rating (bedstraw; [1]): 0 | Plant response rating, Bedstraw (bedstraw; [3]): 9 | Plant response rating, Bedstraw (bedstraw; [4]): 9 | Giant foxtail plant response rating (giant foxtail; [1]): 9 | Plant response rating, Giant foxtail (giant foxtail; [2]): 10 | Redroot pigweed plant response rating (pigweed; [1]): 2 | Plant response rating, Redroot pigweed (pigweed; [2]): 3 | Sugarbeets plant response rating (sugar beet; [1]): 0 | Plant response rating, Sugarbeets (sugar beet; [2]): 2 | Crabgrass plant response rating (crabgrass; [1]): 9 | Plant response rating, Crabgrass (crabgrass; [3]): 9 | Plant response rating, Crabgrass (crabgrass; [4]): 10 | Soybean plant response rating (soybean; [1]): 2 | Plant response rating, Soybean (soybean; [2]): 2 | Rape plant response rating (rape; [1]): 0 | Plant response rating, Rape (rape; [2]): 3 | B. signalgrass plant response rating (surinam grass; [1]): 0 | Plant response rating, B. signalgrass (surinam grass; [3]): 8 | Plant response rating, B. signalgrass (surinam grass; [4]): 9 | Plant response rating, B. signalgrass (surinam grass; [5]): 10 | Wheat plant response rating (wheat; [1]): 0 | Plant response rating, Wheat (wheat; [2]): 0

CC(C)N(C(=O)n1oc(=O)n(Cc2nnc(-c3ccccc3)o2)c1=O)c1ccccc1 [Compound 716]
Velvetleaf plant response rating (velvetleaf; [1]): 0 | Plant response rating, Velvetleaf (velvetleaf; [2]): 0 | Velvetleaf plant response rating (velvetleaf; [6]): 0 | Corn plant response rating (corn; [7]): 0 | Corn plant response rating (corn; [1]): 0 | Plant response rating, Corn (corn; [3]): 0 | Corn plant response rating (corn; [6]): 0 | Cocklebur plant response rating (cocklebur; [7]): 0 | Cocklebur plant response rating (cocklebur; [1]): 0 | Plant response rating, Cocklebur (cocklebur; [3]): 0 | Cocklebur plant response rating (cocklebur; [6]): 0 | Blackgrass plant response rating (blackgrass; [7]): 0 | Blackgrass plant response rating (blackgrass; [1]): 0 | Plant response rating, Blackgrass (blackgrass; [3]): 0 | Blackgrass plant response rating (blackgrass; [6]): 0 | Morningglory plant response rating (morningglory; [1]): 0 | Plant response rating, Morningglory (morningglory; [2]): 0 | Morningglory plant response rating (morningglory; [6]): 0 | Wild oats plant response rating (wild oat; [1]): 0 | Plant response rating, Wild oats (wild oat; [2]): 0 | Wild oats plant response rating (wild oat; [6]): 0 | Nutsedge plant response rating (purple nutsedge; [1]): 0 | Plant response rating, Nutsedge (purple nutsedge; [2]): 0 | Bedstraw plant response rating (bedstraw; [7]): 0 | Bedstraw plant response rating (bedstraw; [1]): 0 | Plant response rating, Bedstraw (bedstraw; [3]): 0 | Bedstraw plant response rating (bedstraw; [6]): 0 | Giant foxtail plant response rating (giant foxtail; [7]): 0 | Giant foxtail plant response rating (giant foxtail; [1]): 0 | Plant response rating, Giant foxtail (giant foxtail; [2]): 0 | Giant foxtail plant response rating (giant foxtail; [6]): 0 | Redroot pigweed plant response rating (pigweed; [1]): 0 | Plant response rating, Redroot pigweed (pigweed; [2]): 0 | Redroot pigweed plant response rating (pigweed; [6]): 0 | Sugarbeets plant response rating (sugar beet; [1]): 0 | Plant response rating, Sugarbeets (sugar beet; [2]): 0 | Sugarbeets plant response rating (sugar beet; [6]): 0 | Crabgrass plant response rating (crabgrass; [7]): 0 | Crabgrass plant response rating (crabgrass; [1]): 0 | Plant response rating, Crabgrass (crabgrass; [3]): 0 | Crabgrass plant response rating (crabgrass; [6]): 0 | Soybean plant response rating (soybean; [1]): 0 | Plant response rating, Soybean (soybean; [2]): 0 | Soybean plant response rating (soybean; [6]): 0 | Rape plant response rating (rape; [1]): 0 | Plant response rating, Rape (rape; [2]): 0 | Rape plant response rating (rape; [6]): 0 | B. signalgrass plant response rating (surinam grass; [7]): 0 | B. signalgrass plant response rating (surinam grass; [1]): 0 | Plant response rating, B. signalgrass (surinam grass; [3]): 0 | B. signalgrass plant response rating (surinam grass; [6]): 0 | Wheat plant response rating (wheat; [1]): 0 | Plant response rating, Wheat (wheat; [2]): 0 | Wheat plant response rating (wheat; [6]): 0

C=C(Cn1c(=O)on(C(=O)N(c2ccc(F)cc2)C(C)C)c1=O)C(=O)OC [Compound 732]
Velvetleaf plant response rating (velvetleaf; [1]): 0 | Plant response rating, Velvetleaf (velvetleaf; [2]): 0 | Velvetleaf plant response rating (velvetleaf; [6]): 0 | Velvetleaf plant response rating (velvetleaf; [8]): 0 | Corn plant response rating (corn; [1]): 0 | Plant response rating, Corn (corn; [3]): 0 | Corn plant response rating (corn; [6]): 0 | Corn plant response rating (corn; [8]): 0 | Cocklebur plant response rating (cocklebur; [1]): 0 | Plant response rating, Cocklebur (cocklebur; [3]): 0 | Cocklebur plant response rating (cocklebur; [6]): 0 | Cocklebur plant response rating (cocklebur; [8]): 0 | Blackgrass plant response rating (blackgrass; [1]): 0 | Plant response rating, Blackgrass (blackgrass; [3]): 0 | Blackgrass plant response rating (blackgrass; [6]): 0 | Blackgrass plant response rating (blackgrass; [8]): 0 | Morningglory plant response rating (morningglory; [1]): 0 | Plant response rating, Morningglory (morningglory; [2]): 0 | Morningglory plant response rating (morningglory; [6]): 0 | Morningglory plant response rating (morningglory; [8]): 0 | Wild oats plant response rating (wild oat; [1]): 0 | Plant response rating, Wild oats (wild oat; [2]): 0 | Wild oats plant response rating (wild oat; [6]): 0 | Wild oats plant response rating (wild oat; [8]): 0 | Nutsedge plant response rating (purple nutsedge; [1]): 0 | Nutsedge plant response rating (purple nutsedge; [6]): 0 | Nutsedge plant response rating (purple nutsedge; [8]): 0 | Bedstraw plant response rating (bedstraw; [1]): 0 | Plant response rating, Bedstraw (bedstraw; [3]): 0 | Bedstraw plant response rating (bedstraw; [6]): 0 | Bedstraw plant response rating (bedstraw; [8]): 0 | Giant foxtail plant response rating (giant foxtail; [1]): 0 | Plant response rating, Giant foxtail (giant foxtail; [2]): 0 | Giant foxtail plant response rating (giant foxtail; [6]): 0 | Giant foxtail plant response rating (giant foxtail; [8]): 0 | Redroot pigweed plant response rating (pigweed; [1]): 0 | Plant response rating, Redroot pigweed (pigweed; [2]): 0 | Redroot pigweed plant response rating (pigweed; [6]): 0 | Redroot pigweed plant response rating (pigweed; [8]): 0 | Sugarbeets plant response rating (sugar beet; [1]): 0 | Plant response rating, Sugarbeets (sugar beet; [2]): 0 | Sugarbeets plant response rating (sugar beet; [6]): 0 | Sugarbeets plant response rating (sugar beet; [8]): 0 | Crabgrass plant response rating (crabgrass; [1]): 0 | Plant response rating, Crabgrass (crabgrass; [3]): 0 | Crabgrass plant response rating (crabgrass; [6]): 0 | Crabgrass plant response rating (crabgrass; [8]): 0 | Soybean plant response rating (soybean; [1]): 0 | Plant response rating, Soybean (soybean; [2]): 0 | Soybean plant response rating (soybean; [6]): 0 | Soybean plant response rating (soybean; [8]): 0 | Rape plant response rating (rape; [1]): 0 | Plant response rating, Rape (rape; [2]): 0 | Rape plant response rating (rape; [6]): 0 | Rape plant response rating (rape; [8]): 0 | B. signalgrass plant response rating (surinam grass; [1]): 0 | Plant response rating, B. signalgrass (surinam grass; [3]): 0 | B. signalgrass plant response rating (surinam grass; [6]): 0 | B. signalgrass plant response rating (surinam grass; [8]): 0 | Wheat plant response rating (wheat; [1]): 0 | Plant response rating, Wheat (wheat; [2]): 0 | Wheat plant response rating (wheat; [6]): 0 | Wheat plant response rating (wheat; [8]): 0
